Experimental findings from patent US4871109A (priority 1988, dated 1989) are described below.

Data set [1] deals with rats. The conditions noted are these: rat, in vivo.
Data set [2] in a line: in vivo. The conditions noted are these: rat.

As a reminder, the LD50 is the dose expected to kill half of the subjects tested. A lower LD50 goes with greater toxicity. As to `FC(F)(F)OC(F)(F)C(F)(F)OC(F)(F)C(F)(F)OC(F)(F)C(F)(F)OC(F)(F)C(F)(F)OC(F)(F)C(F)(F)OC(F)(F)C(F)(F)OC(F)(F)C(F)(F)OC(F)(F)F` [PFHG, 1,1,1,3,3,4,4,6,6,7,7,9,9,10,10,12,12,13,13,15,15,16,16,18, 18,19,19,21,21,22,22,24,24,24-tetratriacontafluoro-2,5,8,11, 14,17,20,23-octaoxatetetracosane], in data set [1], the “toxicity (in words)” value is “essentially nontoxic”. In data set [2], this compound yielded an LD50 of more than 10000 mg/kg.
